Measured values reported in patent publication US8637252B2, “Methods and compositions for determining altered susceptibility of HIV-1 to anti-HIV drugs” (Monogram Biosciences, Inc., priority 2011, dated 2014).

How the values were obtained:
Assay type in all cases: cell-based
[1] = test system: HIV-1 patient-derived test vectors with site-directed reverse transcriptase mutations; test: phenotypic drug resistance test, site-directed reverse transcriptase mutants in patient backgrounds
Procedure: In addition, using conventional technique, the T369I mutation was introduced into a resistance test vector comprising PR-RT segment derived from patient sample 62, which comprises mutations A62V, Q102K, K103N, K122E, D123N, C162S, D177E, 1178L, M184V, T200A, Q207E, T215Y, P243S, V245Q, A272P and R277K in reverse transcriptase. Among these mutations, K103N correlates with resistance to a number of NNRTIs, including NVP. This patient sample was tested for resistance to an NNRTI using the methods described above.
(§1) To further analyze the effects of N348I, T369I, and E399D on NNRTI resistance, an additional series of site directed mutants was constructed in non-wild-type backgrounds. In particular, site-directed mutants comprising the N348I, T369I, or E399D mutation were constructed in POL-containing test vectors obtained from three different patient samples. Results from these experiments are presented as FIG. 11.
as §1, with “on AZT” for “on NNRTI”, “the N3481,” for “the N348I,”, “from two” for “from three”, “samples.” for “samples. Results from these experiments are presented as FIG. 11.”

[2] = test system: HIV-1 NL4-3 site-directed reverse transcriptase mutants; test: phenotypic drug resistance test, site-directed reverse transcriptase mutants in NL4-3 background (POL segment assay)
Procedure: Further, a site directed double mutant T3691/K103N was generated using conventional techniques and tested for resistance to an NNRTI using the methods described above.
To assess the effects of mutations at positions 348, 369, and 399, a series of site-directed mutants were constructed in an wild-type (NL4-3) background. The NNRTI susceptibility phenotypes of these mutants were then determined using the POL segment assay according to Example 2.
In particular, site-directed mutants were constructed in an NL4-3 background comprising N348I, T369I, E399D, or the combination of N3481 and T369I.
Next, a series of site-directed mutants were constructed to assess the effects of combinations of N3481, T369I, and E399D with previously recognized NNRTI resistance mutations. In particular, mutants comprising N348I, T369I, and E399D were made in combination with G190S, with K103N, and with the combination of K103R and V179D. The effects of these combinations on DLV, EFV, and NVP susceptibility were tested using the POL segment assay according to the method describe in Example 2. The results from these experiments are presented as FIG. 10.
To assess the specific effects of mutations at positions 348, 369, and 399, a series of site-directed mutants were constructed in an wild-type (NL4-3) background. The AZT susceptibility phenotype of these mutants were then determined with a POL segment assay according to Example 2.
In particular, site-directed mutants were constructed in an NL4-3 background comprising N348I, T3691, E399D, or the combination of N348I and T3691. The FC in AZT susceptibility for each mutant is shown as FIG. 13.

[3] = test system: HIV-1 (patient-derived RHIN segment); test: phenotypic drug resistance test, resistance test vectors with patient-derived RHIN segment, luciferase, 293 cells
From the text: Patient-derived segment(s) corresponding to the entire pol gene, encoding HIV protease, reverse transcriptase (including RNAse H), and integrase (hereinafter “POL”), the portion of pol encoding amino acids 1-305 of reverse transcriptase (hereinafter “PR-RT”), the portion of pol encoding amino acids 319-440 of reverse transcriptase (including RNAse H), and integrase (hereinafter “RHIN”), were amplified by the reverse transcription-polymerase chain reaction method (RT-PCR) using viral RNA isolated from viral particles present in the plasma or serum of HIV-infected individuals as described below. The portion of pol encoding protease, amino acids 1-531 of reverse transcriptase (including RNase H) (hereinafter “PRRT-RH”), or the portion of pol encoding protease, reverse transcriptase (including RNAse H) and integrase (hereinafter “PRRT-RHIN”), were assembled from amplicons described above by standard recombinant DNA techniques involving a KpnI restriction site at amino acid 400 or a Pin A1 site at amino acid 315.
Virus was pelleted by centrifugation at 20,400×g for 60 min from plasma (typically, 1 ml) prepared from blood samples collected in evacuated tubes containing either EDTA, acid-citrate dextrose, or heparin as an anticoagulant. Virus particles were disrupted by resuspending the pellets in 200 [1.1 of lysis buffer (4 M guanidine thiocyanate, 0.1 M Tris HCl (pH 8.0), 0.5% sodium lauryl sarcosine, 1% dithiothreitol). RNA was extracted from viral lysates by using oligo(dT) linked to magnetic beads (Dynal, Oslo, Norway). Reverse transcription was performed with Superscript III (Invitrogen) at 50 degrees for 1 hour using primer 1.
From the resultant cDNA either POL or RHIN sequences were amplified using the Advantage High Fidelity PCR kit (BD Biosciences; Clontech). POL amplification products are made using forward Primer 3 containing an Apal site and reverse Primer 4 containing a Xho 1 site. RHIN amplification products are made using forward Primer 2 containing a P1NA1 site and reverse Primer 4 containing a Xho 1 site.
A retroviral vector designed to measure antiretroviral drug susceptibility was constructed by using an infectious molecular clone of HIV-1. The vector, referred to herein as an indicator gene viral vector (IGVV), is replication defective and contains a luciferase expression cassette inserted within a deleted region of the envelope (env) gene. The IGVV is described in U.S. Pat. No. 5,837,464 (International Publication Number WO 97/27319) which is hereby incorporated by reference in its entirety. This retroviral vector was further modified to allow insertion of either the entire pol gene (POL) or the portion of poi encoding amino acids 319-440 of reverse transcriptase, the RNase H portion of reverse transcriptase, and integrase (REIN) by engineering an Xho l restriction enzyme recognition site into vif. Prior to doing this, an Xho 1 site in nef was deleted. Resistance Test vectors (RTVs) were constructed by incorporating amplified POL or RHIN into the IGVV by using Apal and Xhol or PinAI and Xho 1 restriction sites respectively. RTVs were prepared as libraries (pools) in order to capture and preserve the pol or RHIN sequence heterogeneity of the virus in the patient. POL amplification products were digested with Apal and Xhol, purified by agarose gel electrophoresis, and ligated to ApaI- and Xhol-digested IGVV DNA. RHIN amplification products were digested with PinAI and Xho/, purified by agarose gel electrophoresis, and ligated to PinAI and Xhol-digested IGVV DNA. Ligation reactions were used to transform competent Escherichia coli (Invitrogen, Carlsbad, Calif.). An aliquot of each transformation was plated onto agar, and colony counts were used to estimate the number of patient-derived segments represented in each RTV library. RTV libraries that comprised less than 50 members are not considered representative of the patient virus. […]

[4] = test system: HIV-1 NL4-3 and IIIB site-directed integrase mutants; test: phenotypic INSTI susceptibility test, site-directed integrase mutants in NL4-3 or IIIB background (RHIN segment assay)
Procedure: To assess the effects of mutations at positions 97 and 156 of integrase, two site-directed mutants (T97A and K156N) were constructed in two different wild-type (NL4-3 and IIIB) genetic backgrounds. The INSTI susceptibility phenotypes of these mutants to diketo acid 1, diketo acid 2, and L-870,810 were then determined using the RHIN segment assay according to Example 2.
In particular, site-directed mutants were constructed in an NL4-3 or IIIB background comprising either T97A or K156N. The FC in susceptibility to diketo acid 1, diketo acid 2, and L-870,810 for each mutant is shown as FIG. 18.
Next, a series of site-directed mutants were constructed to assess the effects of combinations of T97A and K156N with previously recognized INSTI resistance mutations. In particular, mutants comprising T97A, K156N, and the combination of T97A and K156N were made in combination with three constellations of previously recognized INSI mutations (V721, F121Y, and T125K; N155S; and T66I and M1541). Each of these combinations was made in a IIIB background. The effects of these combinations on diketo acid 1, diketo acid 2, and L-870,810 susceptibility were tested with the RHIN segment assay according to the method described in Example 2.

Compound	change in resistance on addition of mutation ([1]; E399D mutation, patient 45 or patient 50 background)	change in resistance on addition of mutation ([1]; N348I and T369I mutations, all tested patient backgrounds (patients 45, 50))	FC in susceptibility ([2]; site-directed mutant E399D in NL4-3 background)	FC in susceptibility ([2]; site-directed mutant N348I and T369I combination in NL4-3 background)	FC in susceptibility ([2]; site-directed mutant N348I in NL4-3 background)	fold change for IC50 ([2]; site-directed mutant T369I in NL4-3 background) [fold]	FC in susceptibility relative to wild-type (NL4-3) ([3]; nine of 128 patient samples, containing integrase K156N)	FC in susceptibility relative to wild-type (NL4-3) ([3]; three of 128 patient samples, containing integrase T97A)	effect of mutation on resistance ([4]; T97A alone or with V72I/F121Y/T125K, N155S, or T66I/M154I, IIIB background)	effect of mutation on susceptibility ([4]; integrase K156N in NL4-3 and IIIB backgrounds)	effect of mutation on susceptibility ([4]; integrase T97A in NL4-3 and IIIB backgrounds)
Cc1cn([C@H]2C[C@H](N=[N+]=[N-])[C@@H](CO)O2)c(=O)[nH]c1=O [AZT]	did not significantly increase	increased resistance	< 2	> 2	> 2	> 2					
O=C(NCc1ccc(F)cc1)c1nc(N2CCCCS2(=O)=O)c2cccnc2c1O [L-870,810]							< 0.5	increased FC	increased resistance	increased susceptibility	reduced susceptibility
